Reference: US20170267708A1, “C-4" POSITION SUBSTITUTED MACROLIDE DERIVATIVE” (priority 2014, published 2017)
Values after ≈ are worked out from the molar mass of the structure shown. Read-outs that look alike come from different tables or passages of the source.

Tests used:
[1] = test system: Streptococcus pneumoniae ATCC700904; experiment: In vitro antibacterial activity, microbroth dilution (CLSI method); type: cell-based; conditions: bacterium symbol G
Description: (§1) In vitro antibacterial activities of the compound of the present invention, the compound represented by the formula [1] of Example 1, against various test bacteria were measured according to the microbroth dilution method (CLSI method). The activities of the compound of Reference Example 4 represented by the formula [3] was similarly measured. The MIC values (minimum inhibitory concentration, μg/ml) for the test bacteria of the bacterium symbols A, B, C, D, E, F, G, H, I, J, K, and L are shown in Table 2.

[2] = test system: Haemophilus influenzae ATCC43095; experiment: as above; type: cell-based; conditions: for MIC: Haemophilus influenzae, ATCC43095
Description: as §1

[3] = test system: Streptococcus pneumoniae MSC08607; experiment: as above; type: cell-based; conditions: bacterium symbol F
Description: as §1

[4] = test system: Streptococcus pneumoniae MSC07365; experiment: as above; type: cell-based; conditions: bacterium symbol H
Description: as §1

[5] = test system: Streptococcus pyogenes ATCC12344; experiment: as above; type: cell-based; conditions: bacterium symbol I
Description: as §1

[6] = test system: Streptococcus pyogenes MSC07811; experiment: as above; type: cell-based; conditions: bacterium symbol K
Description: as §1

[7] = test system: Haemophilus influenzae MSC17946; experiment: as above; type: cell-based; conditions: bacterium symbol B
Description: as §1

[8] = test system: Streptococcus pneumoniae ATCC49619; experiment: as above; type: cell-based; conditions: bacterium symbol D
Description: as §1

[9] = test system: Streptococcus aureus ATCC29213; experiment: as above; type: cell-based; conditions: bacterium symbol L
Description: as §1

[10] = test system: Streptococcus pneumoniae MSC07465; experiment: as above; type: cell-based; conditions: bacterium symbol E
Description: as §1

[11] = test system: Haemophilus influenzae NSC17960; experiment: as above; type: cell-based; conditions: bacterium symbol C
Description: as §1

[12] = test system: Streptococcus pyogenes MSC07812; experiment: as above; type: cell-based; conditions: bacterium symbol J
Description: as §1

[13] = test system: 39 kinds of clinically isolated strains of Hemophilus influenzae; experiment: Hemophilus influenzae susceptibility test; type: cell-based; conditions: 39 clinically isolated strains
Description: as §1
Drug susceptibility of 39 kinds of clinically isolated strains of Hemophilus influenzae was evaluated in the same manner as that of Test Example 1.

[14] = test system: Streptococcus pneumoniae 1101 strain; experiment: MIC against the strain of Test Example 4; type: cell-based; conditions: notes for FIG. 2, erm(B) strain
Description: (§2) The notes for FIG. 2 are as follows. As for significant difference relative to the medium administration group, significance was determined by the Steel test, and the symbols * and ** mean p<0.05 and p<0.01, respectively.

[15] = test system: Streptococcus pneumoniae 1028 strain; experiment: Therapeutic effect test in erythromycin resistant pneumococcus (harboring mef(A) gene)-infected animals; type: in vivo, mice; conditions: for number of living cells in the lung: CBA/JN mice, 3 days after inoculation
Description: As a bacterium, the Streptococcus pneumoniae 1028 strain (clinically isolated strain) was used. A frozen stock of the strain used was added to the Todd Hewitt broth supplemented with 30 vol % inactivated horse serum, and the bacterium was cultured until the turbidity (OD600) became about 0.3. The culture was diluted with the Todd Hewitt broth supplemented with 30 vol % inactivated horse serum to prepare a bacterial suspension for inoculation. The bacterial suspension for inoculation (0.05 mL each) was intranasally administered to mice (CBA/JN, male, 5 weeks old) for infection. The inoculated bacterial amount was 3.45×10^4 CFU/mouse, or 3.90×10^4 CFU/mouse. From the next day of the inoculation, the compound of Example 1 represented by the formula [1] (3, 10, 30 and 100 mg/kg) or a medium (mixture of equivalent volumes of a 0.1 mol/L lactobionic acid solution and a 0.5 w/v % sodium hydrogencarbonate solution) was orally administered to the mice once a day for 2 days. The numbers of living cells in the lung observed 3 days after the inoculation are shown in FIG. 3 (each group consisted of 5 or 6 mice, average±standard error).
(§3) The notes for FIG. 3 are as follows. As for significant difference relative to the medium administration group, significance was determined by the Steel test, and the symbols * and ** mean p<0.05 and p<0.01, respectively.

[16] = test system: Haemophilus influenzae ATCC 43095 strain; experiment: Therapeutic effectiveness in Haemophilus influenzae-infected animals; type: in vivo, mice; conditions: for number of living cells in the lung: ICR mice, 3 days after inoculation, average±standard error
Description: As a bacterium, the Haemophilus influenzae ATCC 43095 strain (bacterium symbol A) was used. Cells of the bacterium cultured overnight on a chocolate agar medium were collected, suspended in a Hemophilus susceptibility test medium or the brain heart infusion medium supplemented with Fildes Enrichment, and then cultured overnight. The culture was diluted with the Hemophilus susceptibility test medium or the brain heart infusion medium supplemented with Fildes Enrichment to prepare a bacterial suspension for inoculation. The bacterial suspension for inoculation (0.05 mL each) was intratracheobronchially administered to mice (ICR, male, 4 weeks old) for infection. The inoculated bacterial amount was 2.25×10^6 CFU/mouse, or 9.00×10^5 CFU/mouse. From the next day of the inoculation, the compound represented by the formula [1] of Example 1 (100 and 200 mg/kg) or a medium (mixture of equivalent volumes of a 0.1 mol/L lactobionic acid solution and a 0.5 w/v % sodium hydrogencarbonate solution) was orally administered to the mice once a day for 2 days. The numbers of living cells in the lung observed 3 days after the inoculation are shown in FIG. 1 (each group consisted of 6 mice, average±standard error).
The notes for FIG. 1 are as follows. As for significant difference relative to the medium administration group, significance was determined by the Steel test, and the symbols * and ** mean p<0.05 and p<0.01, respectively. The MIC value of the compound of Example 1 represented by the formula [I] was 4 μg/mL, and the MIC value of the compound of Reference Example 4 represented by the formula [3] was 4 μg/mL.
In the following descriptions, the numbers of living cells in the lung as the test results may be represented in terms of common logarithm of number of live cells in the lung (CFU/lung) (common logarithm is henceforth indicated as log).

[17] = test system: Streptococcus pneumoniae 1028 strain; experiment: MIC against the strain of Test Example 5; type: cell-based; conditions: notes for FIG. 3, mef(A) strain
Description: as §3

[18] = test system: Streptococcus pneumoniae 1101 strain; experiment: Therapeutic effect test in erythromycin resistant pneumococcus (harboring erm(B) gene)-infected animals; type: in vivo, mice; conditions: for number of living cells in the lung: CBA/JN mice, 3 days after inoculation, average±standard error
Description: As a bacterium, the Streptococcus pneumoniae 1101 strain (clinically isolated strain) was used. A frozen stock of the strain used was added to the Todd Hewitt broth supplemented with 30 vol % inactivated horse serum, and the bacterium was cultured until the turbidity (OD600) became about 0.3. The culture medium was diluted with the Todd Hewitt broth supplemented with 30 vol % inactivated horse serum to prepare a bacterial suspension for inoculation. The bacterial suspension for inoculation (0.05 mL each) was intranasally administered to mice (CBA/JN, male, 5 weeks old) for infection. The inoculated bacterial amount was 7.50×10^4 CFU/mouse, or 1.65×10^5 CFU/mouse. From the next day of the inoculation, the compound of Example 1 represented by the formula [1] […] The numbers of live cells in the lung observed 3 days after the inoculation are shown in FIG. 2 (each group consisted of 5 or 6 mice, average±standard error).
as §2

[19] = 10 mg/kg orally once a day for 2 days, average±standard error
[20] = 30 mg/kg orally once a day for 2 days, 1.30 = lower than detection limit
[21] = 100 mg/kg orally once a day for 2 days, 1.30 = lower than detection limit
[22] = 100 mg/kg orally once a day for 2 days
[23] = 200 mg/kg orally once a day for 2 days
[24] = 30 mg/kg orally once a day for 2 days

`CC[C@H]1OC(=O)[C@H](C)[C@@H](O[C@H]2C[C@@](C)(OC)[C@@](O)(CN(C)CCN(CC)CC)[C@H](C)O2)[C@H](C)[C@@H](O[C@@H]2O[C@H](C)C[C@H](N(C)C)[C@H]2O)[C@@](C)(OC)C[C@@H](C)C(=O)[C@H](C)[C@H]2N(CCCS(C)(=O)=O)C(=O)O[C@]12C` [Reference Example 4, reference compound] gave an MIC ([1]; Streptococcus pneumoniae, ATCC700904, read-out: MIC (minimum inhibitory concentration)) of 0.12 µg/mL (≈ 0.116 µM), an MIC ([2]; bacterium symbol A, read-out: MIC (minimum inhibitory concentration)) of 4 µg/mL (≈ 3.86 µM) and an MIC ([2]; notes for FIG. 1, strain of Test Example 3, read-out: MIC value) of 4 µg/mL (≈ 3.86 µM). It also gave an MIC ([3]; Streptococcus pneumoniae, MSC08607, read-out: MIC (minimum inhibitory concentration)) of 0.06 µg/mL (≈ 0.0579 µM), an MIC ([4]; Streptococcus pneumoniae, MSC07365, read-out: MIC (minimum inhibitory concentration)) of 4 µg/mL (≈ 3.86 µM) and an MIC ([5]; Streptococcus pyogenes, ATCC12344, read-out: MIC (minimum inhibitory concentration)) of 0.06 µg/mL (≈ 0.0579 µM). It also gave an MIC ([6]; Streptococcus pyogenes, MSC07811, read-out: MIC (minimum inhibitory concentration)) of 4 µg/mL (≈ 3.86 µM), an MIC ([7]; Haemophilus influenzae, MSC17946, read-out: MIC (minimum inhibitory concentration)) of 8 µg/mL (≈ 7.73 µM) and an MIC ([8]; Streptococcus pneumoniae, ATCC49619, read-out: MIC (minimum inhibitory concentration)) of 0.03 µg/mL (≈ 0.029 µM). For the same compound, the MIC ([9]; Streptococcus, ATCC29213, read-out: MIC (minimum inhibitory concentration)) was 0.5 µg/mL (≈ 0.483 µM), the MIC ([10]; Streptococcus pneumoniae, MSC07465, read-out: MIC (minimum inhibitory concentration)) was 0.03 µg/mL (≈ 0.029 µM) and the MIC ([11]; Haemophilus influenzae, NSC17960, read-out: MIC (minimum inhibitory concentration)) was 4 µg/mL (≈ 3.86 µM). It also gave an MIC ([12]; Streptococcus pyogenes, MSC07812, read-out: MIC (minimum inhibitory concentration)) of 0.25 µg/mL (≈ 0.241 µM), an MIC50 [13] of 4 µg/mL (≈ 3.86 µM) and an MIC90 [13] of 8 µg/mL (≈ 7.73 µM). For the same compound, the MIC ([14]; Streptococcus pneumoniae, 1101STRAIN) was 0.12 µg/mL (≈ 0.116 µM), the “number of living cells in the lung” value [15, 19] was 5.67±0.38 log (CFU/lung) and the “number of living cells in the lung” value [15, 20] was 1.30±0.00 log (CFU/lung). For the same compound, the “number of living cells in the lung” value [15, 21] was 1.30±0.00 log (CFU/lung), the “number of living cells in the lung” value [16, 22] was 4.37±0.27 log (CFU/lung) and the “number of living cells in the lung” value [16, 23] was 2.53±0.23 log (CFU/lung). For the same compound, the MIC ([17]; Streptococcus pneumoniae, 1028STRAIN) was 0.03 µg/mL (≈ 0.029 µM), the “number of living cells in the lung” value ([18]; 10 mg/kg orally once a day for 2 days) was 5.86±0.12 log (CFU/lung) and the “number of living cells in the lung” value [18, 24] was 5.22±0.16 log (CFU/lung). For the same compound, the “number of living cells in the lung” value [18, 22] was 3.65±0.36 log (CFU/lung).

For `CCNC(=O)CN1C(=O)O[C@]2(C)[C@@H](CC)OC(=O)[C@H](C)[C@@H](O[C@H]3C[C@@](C)(OC)[C@@](O)(CN(C)CCN(C(C)C)C(C)C)[C@H](C)O3)[C@H](C)[C@@H](O[C@@H]3O[C@H](C)C[C@H](N(C)C)[C@H]3O)[C@@](C)(OC)C[C@@H](C)C(=O)[C@H](C)[C@@H]12` [Example 1], the “MIC (minimum inhibitory concentration)” value [1] was 0.12 µg/mL (≈ 0.117 µM), the “MIC (minimum inhibitory concentration)” value ([2]; bacterium symbol A) was 4 µg/mL (≈ 3.89 µM) and the MIC value ([2]; notes for FIG. 1, strain of Test Example 3) was 4 µg/mL (≈ 3.89 µM). For the same compound, the “MIC (minimum inhibitory concentration)” value [3] was 0.06 µg/mL (≈ 0.0583 µM), the “MIC (minimum inhibitory concentration)” value [4] was 4 µg/mL (≈ 3.89 µM) and the “MIC (minimum inhibitory concentration)” value [5] was 0.06 µg/mL (≈ 0.0583 µM). For the same compound, the “MIC (minimum inhibitory concentration)” value [6] was 2 µg/mL (≈ 1.94 µM), the “MIC (minimum inhibitory concentration)” value [7] was 8 µg/mL (≈ 7.78 µM) and the “MIC (minimum inhibitory concentration)” value [8] was 0.06 µg/mL (≈ 0.0583 µM). For the same compound, the “MIC (minimum inhibitory concentration)” value [9] was 1 µg/mL (≈ 0.972 µM), the “MIC (minimum inhibitory concentration)” value [10] was 0.03 µg/mL (≈ 0.0292 µM) and the “MIC (minimum inhibitory concentration)” value [11] was 4 µg/mL (≈ 3.89 µM). For the same compound, the “MIC (minimum inhibitory concentration)” value [12] was 0.12 µg/mL (≈ 0.117 µM), the MIC50 [13] was 4 µg/mL (≈ 3.89 µM) and the MIC90 [13] was 8 µg/mL (≈ 7.78 µM). The MIC value [14] was 0.25 µg/mL (≈ 0.243 µM), the “number of living cells in the lung” value ([15]; 3 mg/kg orally once a day for 2 days, average±standard error) was 6.45±0.18 log (CFU/lung) and the “number of living cells in the lung” value [15, 19] was 1.30±0.00 log (CFU/lung). The “number of living cells in the lung” value [15, 20] was 1.30±0.00 log (CFU/lung), the “number of living cells in the lung” value [15, 21] was 1.30±0.00 log (CFU/lung) and the “therapeutic effectiveness relative to the compound of Reference Example 4” value ([15]; overall conclusion of Test Example 5) was “superior”. The “number of living cells in the lung” value [16, 22] was 3.54±0.49 log (CFU/lung), the “number of living cells in the lung” value [16, 23] was 2.83±0.53 log (CFU/lung) and the “therapeutic effectiveness relative to the compound of Reference Example 4” value ([16]; overall conclusion of Test Example 3) was “comparable”. The MIC value [17] was 0.12 µg/mL (≈ 0.117 µM), the “number of living cells in the lung” value [18, 24] was 4.14±0.19 log (CFU/lung) and the “number of living cells in the lung” value [18, 22] was 2.28±0.24 log (CFU/lung). For the same compound, the “therapeutic effectiveness relative to the compound of Reference Example 4” value ([18]; overall conclusion of Test Example 4) was “superior”.
